In brackets after ≈: the same amount, converted by molar mass. Bounds are passed on as bounds.

The first experiment deals with Candida albicans ATCC MYA-2876. The experiment is described as follows: Minimal inhibitory concentration (MIC) test on fungal growth (CLSI M27, yeasts). As to conditions: Candida albicans, 24 h, read-out: MIC Candida albicans ATCC MYA-2876. Type of experiment: cell-based. As to the method:
• RPMI1640 medium: Brand: Gibco, article number: 31800-014 • Sabouraud dextrose agar (SDA): Brand: Hope Bio, article number: HB0253-81 • Voriconazole: Brand: Adamas, article number: 22105A • Amphotericin B: Brand: AbCam, article number: ab141199
MIC test was conducted in accordance with the guidelines and requirements of CLSI M27 (for yeasts) and M38 (for Aspergillus).
Strain preparation: The strains were inoculated 1 day in advance by streaking on SDA plates with glycerol strains stored at −80° C. The strains were cultured at 35° C. and 40 to 60% humidity for 18 to 24 hours. Streak inoculation of Aspergillus fumigatus and Cryptococcus neoformans was required to be done 3 days and 2 days in advance, respectively.
Preparation of culture medium and compounds: The liquid culture medium RPMI was prepared with pure water, and 0.165 mol/L MOPS was added to adjust the pH to 7.0. The mixture was filtered with a 0.22 μm-membrane filter, sterilized, and stored at 4° C. (no more than 3 months). 0.85% physiological saline was sterilized at 121° C. for 30 min and then stored at room temperature (no more than 1 week). The compounds were dissolved in DMSO to 12.8 mg/mL and stored at −20° C.
For yeast, 3 to 5 colonies were selected from the SDA plate on the day of testing and fully suspended in 5 mL of sterilized 0.85% physiological saline. The turbidity of the bacterial suspension was measured with a turbidimeter, and the turbidity was adjusted to approximately 0.2. The bacterial suspension was 50-fold and 20-fold (1000-fold in total) diluted in RPMI1640 medium, respectively, to serve as the inoculum. The final inoculum concentration was 500 to 2500 CFU/mL.
The compound was diluted to the highest 800 μg/mL (or 400 μg/mL) with DMSO, and a 10-step 2-fold gradient dilution was performed, resulting in 11 concentrations. 2 μL of the gradient-diluted compound was transferred to the corresponding wells of a 96-well plate, and then 198 μL of the inoculum was transferred to the test plate. The plate was incubated at 35° C. for 24 hours (Aspergillus fumigatus and Cryptococcus neoformans were incubated for 48 and 72 hours, respectively).
After the incubation, the growth of the fungi was visually observed. The lowest concentration of the compound that inhibited the growth of yeast by 50% (inhibited Aspergillus by 100%) was defined as the minimum inhibitory concentration (MIC, μg/mL). A magnifying glass or reading at OD530 nm could be used to assist in determining the MIC. Photos were taken of the test plates for record keeping.
As to `OC(Cn1cnnn1)(c1ccc(F)cc1F)C(F)(F)C12CC(c3ccc(Oc4ccccn4)cc3)(C1)C2` (centres unmarked) [Compound 71], the minimum inhibitory concentration (MIC) – broadly, the lowest concentration that inhibits growth of the organism – is 0.03 µg/mL (≈ 0.0587 µM).
For the compound `OC(COc1ccc(C23CC(C(F)(F)C(O)(Cn4cnnn4)c4ccc(F)cc4F)(C2)C3)cc1)CN1CCOCC1` (centres unmarked) [Compound 57], the MIC was 0.06 µg/mL (≈ 0.104 µM).
The same measure, in the same setting: under `COc1ccc(C23CC(C(F)(F)C(O)(Cn4cnnn4)c4ccc(F)cc4F)(C2)C3)cn1` (centres unmarked) [Compound 92] stands 0.03 µg/mL (≈ 0.0668 µM); under `OC(Cn1cnnn1)(c1ccc(F)cc1F)C(F)(F)C12CC(c3cnc(NCC(F)(F)F)nc3)(C1)C2` (centres unmarked) [Compound 111], 0.016 µg/mL (≈ 0.0309 µM).

The experiment is the same for the next values; noted with them: Candida albicans; lowest concentration inhibiting growth of yeast by 50%; 35° C., 24 hours; RPMI1640; read-out: MIC Candida albicans ATCC MYA-2876.
`N#CC1(COc2ccc(C34CC(C(F)(F)C(O)(Cn5cnnn5)c5ccc(F)cc5F)(C3)C4)cc2)CC1` (centres unmarked) [Compound 148]: the MIC turned out to be 0.016 µg/mL (≈ 0.0312 µM).
With `Oc1ccc(C23CC(C(F)(F)[C@@](O)(Cn4cncn4)c4ccc(F)cc4F)(C2)C3)cc1` [Compound 21B], the MIC is 1 µg/mL (≈ 2.31 µM).
The same measure, in the same setting: next, `N#Cc1ccc(C23CC(C(F)(F)[C@@](Cn4cncn4)(OP(=O)(O)O)c4ccc(F)cc4F)(C2)C3)cc1` [Compound 27A-P1]: 2 µg/mL (≈ 3.83 µM).
With `N#Cc1ccc(C23CC(C(F)(F)C(O)(Cn4cnnn4)c4cc(F)ccc4F)(C2)C3)cc1` (centres unmarked) [Compound 28], the MIC worked out at 0.016 µg/mL (≈ 0.0361 µM).
On to `N#Cc1ccc(C23CC(C(F)(F)[C@](O)(Cn4cnnn4)c4cc(F)ccc4F)(C2)C3)cc1` [Compound 28A], for which the MIC came to 0.25 µg/mL (≈ 0.564 µM).
`O[C@](Cn1cnnn1)(c1ccc(F)cc1F)C(F)(F)C12CC(c3ccc(Cl)cc3)(C1)C2` [Compound 32B]: the MIC came to 0.06 µg/mL (≈ 0.132 µM).
As to `O[C@H](COc1ccc(C23CC(C(F)(F)C(O)(Cn4cnnn4)c4ccc(F)cc4F)(C2)C3)cc1)CN1CCOCC1` (some centres unmarked) [Compound 58], the minimum inhibitory concentration (MIC) was 0.06 µg/mL (≈ 0.104 µM).
Still for that read-out and setting: next, `COc1nc(C23CC(C(F)(F)C(O)(Cn4cnnn4)c4ccc(F)cc4F)(C2)C3)cs1` (centres unmarked) [Compound 119]: 0.06 µg/mL (≈ 0.132 µM); `OC(COc1ccc(C23CC(C(F)(F)C(O)(Cn4cnnn4)c4ccc(F)cc4F)(C2)C3)cn1)C(F)(F)F` (centres unmarked) [Compound 97]: 0.0078 µg/mL (≈ 0.0142 µM).
Still for that read-out and setting: next, `OC(COc1cnc(C23CC(C(F)(F)C(O)(Cn4cnnn4)c4ccc(F)cc4F)(C2)C3)cn1)C(F)(F)F` (centres unmarked) [Compound 108]: 0.06 µg/mL (≈ 0.109 µM); `N#Cc1ccc(C23CC(C(F)(F)C(F)(Cn4cncn4)c4ccc(F)cc4F)(C2)C3)cc1` (centres unmarked) [Compound 83]: 0.06 µg/mL (≈ 0.135 µM).
Still for that read-out and setting: under `O[C@H](CNc1ccc(C23CC(C(F)(F)[C@](O)(Cn4cnnn4)c4ccc(F)cc4F)(C2)C3)cn1)C(F)(F)F` (relative stereo) [Compound 99A] stands 0.016 µg/mL (≈ 0.0293 µM); under `OC(Cn1ccnc1)(c1ccc(F)cc1F)C(F)(F)C12CC(c3ccc(OCC(F)(F)F)cc3)(C1)C2` (centres unmarked) [Compound 124], 0.0078 µg/mL (≈ 0.0152 µM); under `CN1CC[C@H](Oc2ccc(C34CC(C(F)(F)C(O)(Cn5cnnn5)c5ccc(F)cc5F)(C3)C4)cc2)C1` (some centres unmarked) [Compound 43], 0.03 µg/mL (≈ 0.058 µM).
Consider `O[C@@H](COc1ccc(C23CC(C(F)(F)[C@](O)(Cn4cnnn4)c4cc(F)ccc4F)(C2)C3)cc1)C(F)(F)F` [Compound 166A], for which the MIC is 0.06 µg/mL (≈ 0.11 µM).
Same read-out and setting: under `OC(Cn1cnnn1)(CC12CC(c3ccc(OCC(F)(F)F)cc3)(C1)C2)c1ccc(F)cc1F` (centres unmarked) [Compound 48] stands 0.06 µg/mL (≈ 0.125 µM); under `CN1CC(Oc2ccc(C34CC(C(F)(F)C(O)(Cn5cnnn5)c5ccc(F)cc5F)(C3)C4)cc2)C1` (centres unmarked) [Compound 45], 0.03 µg/mL (≈ 0.0596 µM); under `O=C1NC[C@@H](COc2ccc(C34CC(C(F)(F)C(O)(Cn5cnnn5)c5ccc(F)cc5F)(C3)C4)cc2)O1` (some centres unmarked) [Compound 60], 0.06 µg/mL (≈ 0.112 µM).
On the same count and under the same terms, under `CN1CC(COc2ccc(C34CC(C(F)(F)C(O)(Cn5cnnn5)c5ccc(F)cc5F)(C3)C4)cc2)C1` (centres unmarked) [Compound 75] stands 0.13 µg/mL (≈ 0.251 µM); under `OC12CC(C(F)(F)C(O)(Cn3cncn3)c3ccc(F)cc3F)(C1)C2` (centres unmarked) [Compound 133], 3 µg/mL (≈ 8.4 µM).
With `O[C@@](Cn1ncnn1)(c1ccc(F)cc1F)C(F)(F)C12CC(c3cnc(OCC(F)(F)F)nc3)(C1)C2` (stereo in doubt) [Compound 110A], the MIC was 0.016 µg/mL (≈ 0.0309 µM).
Still for that read-out and setting: next, `CCS(=O)(=O)C[C@@H](O)COc1ccc(C23CC(C(F)(F)C(O)(Cn4cnnn4)c4ccc(F)cc4F)(C2)C3)cc1` (some centres unmarked) [Compound 139]: 0.06 µg/mL (≈ 0.103 µM); `OC(Cn1cnnn1)(c1ccc(F)cc1F)C(F)(F)C12CC(c3ccc(COCC(F)(F)F)cc3)(C1)C2` (centres unmarked) [Compound 160]: 0.016 µg/mL (≈ 0.0302 µM); `N#Cc1ccc(C23CC(C(F)(F)C(O)(Cn4cnnn4)c4ccc(F)cc4F)(C2)C3)cc1` (centres unmarked) [Compound 8]: 0.5 µg/mL (≈ 1.13 µM).
The same measure, in the same setting: under `O=C(COc1ccc(C23CC(C(F)(F)C(O)(Cn4cnnn4)c4ccc(F)cc4F)(C2)C3)cc1)N1CCOCC1` (centres unmarked) [Compound 70] stands 0.13 µg/mL (≈ 0.232 µM); under `OC(COCc1ccc(C23CC(C(F)(F)C(O)(Cn4cnnn4)c4ccc(F)cc4F)(C2)C3)cn1)C(F)(F)F` (centres unmarked) [Compound 86], 0.06 µg/mL (≈ 0.107 µM); under `OC(Cn1cnnn1)(c1ccc(F)cc1F)C(F)(F)C12CC(c3ccc(CNCC(F)(F)F)cc3)(C1)C2` (centres unmarked) [Compound 161], 0.016 µg/mL (≈ 0.0302 µM).
Take `O=S1(=O)CCC(c2ccc(C34CC(C(F)(F)C(O)(Cn5cnnn5)c5ccc(F)cc5F)(C3)C4)cc2)CC1` (centres unmarked) [Compound 163]: the MIC amounted to 0.0078 µg/mL (≈ 0.0142 µM).
The same measure, in the same setting: under `OC(Cn1cnnn1)(c1ccc(F)cc1F)C(F)(F)C12CC(c3cnc(OCC(F)(F)F)cn3)(C1)C2` (centres unmarked) [Compound 107] stands 0.06 µg/mL (≈ 0.116 µM).
On the same count and under the same terms, next, `OC1(COc2ccc(C34CC(C(F)(F)[C@](O)(Cn5cnnn5)c5ccc(F)cc5F)(C3)C4)cc2)COC1` (stereo in doubt) [Compound 150A]: 0.016 µg/mL (≈ 0.0307 µM).
Regarding `CC(C)NC[C@H](O)COc1ccc(C23CC(C(F)(F)C(O)(Cn4cnnn4)c4ccc(F)cc4F)(C2)C3)cc1` (some centres unmarked) [Compound 53], the MIC is 0.5 µg/mL (≈ 0.91 µM).
Turning to `O[C@@H](CNc1ccc(C23CC(C(F)(F)[C@](O)(Cn4cnnn4)c4ccc(F)cc4F)(C2)C3)cn1)C(F)(F)F` (relative stereo) [Compound 99B], the MIC amounted to 0.03 µg/mL (≈ 0.0549 µM).
As for `N#Cc1ccc(C23CC(C(F)(F)[C@@](O)(Cn4cncn4)c4ccc(F)cc4F)(C2)C3)cc1` [Compound 27B], the MIC was 0.06 µg/mL (≈ 0.136 µM).
The same measure, in the same setting: next, `CNC(=O)c1ccc(C23CC(C(F)(F)C(O)(Cn4cnnn4)c4ccc(F)cc4F)(C2)C3)cc1` (centres unmarked) [Compound 79]: 0.25 µg/mL (≈ 0.526 µM); `OC(Cn1cncn1)(c1ccc(F)cc1F)C(F)(F)C12CC(c3ccc(OCC(F)(F)F)nc3)(C1)C2` (centres unmarked) [Compound 47]: 0.0078 µg/mL (≈ 0.0151 µM).
Take `OC(COc1ccc(C23CC(C(F)(F)C(O)(Cn4cnnn4)c4ccc(F)cc4F)(C2)C3)cc1)C1(O)COC1` (centres unmarked) [Compound 146]: the MIC amounted to 0.06 µg/mL (≈ 0.109 µM).
Turning to `N#Cc1ccc(C23CC(CC(O)(Cn4cncn4)c4ccc(F)cc4F)(C2)C3)cc1` (centres unmarked) [Compound 91], the MIC is at most 0.0039 µg/mL.
Regarding `OC(Cn1cnnn1)(c1ccc(F)cc1F)C(F)(F)C12CC(c3ccc(OCc4nccs4)cc3)(C1)C2` (centres unmarked) [Compound 73], the MIC was 0.016 µg/mL (≈ 0.0301 µM).
Same read-out and setting: under `Oc1ccc(C23CC(C(F)(F)C(O)(Cn4cnnn4)c4ccc(F)cc4F)(C2)C3)cc1` (centres unmarked) [Compound 20] stands 0.13 µg/mL (≈ 0.299 µM).
Still for that read-out and setting: next, `OC(Cn1cnnn1)(c1ccc(F)cc1F)C(F)(F)C12CC(C1)C2` (centres unmarked) [Compound 6]: 0.13 µg/mL (≈ 0.38 µM); `CNC(=O)COc1ccc(C23CC(C(F)(F)C(O)(Cn4cnnn4)c4ccc(F)cc4F)(C2)C3)cc1` (centres unmarked) [Compound 34]: 0.016 µg/mL (≈ 0.0317 µM).
In the case of `CNC(=O)COc1ccc(C23CC(C(F)(F)[C@@](O)(Cn4cncn4)c4ccc(F)cc4F)(C2)C3)cc1` (single isomer, unassigned) [Compound 35B], the MIC was found to be 0.125 µg/mL (≈ 0.248 µM).
On the same count and under the same terms, under `O[C@H](COc1ccc(C23CC(C(F)(F)[C@](O)(Cn4cnnn4)c4cc(F)ccc4F)(C2)C3)cc1)C(F)(F)F` (relative stereo) [Compound 165A] stands 0.016 µg/mL (≈ 0.0293 µM).

Staying with this experiment, now noted: lowest concentration inhibiting growth of yeast by 50%; 35° C., 24 hours; RPMI1640.
With `Oc1ccc(C23CC(C(F)(F)[C@](O)(Cn4cnnn4)c4ccc(F)cc4F)(C2)C3)cc1` (single isomer, unassigned) [Compound 20A], the “MIC Candida albicans ATCC MYA-2876” value amounted to 0.06 µg/mL (≈ 0.138 µM).
Turning to `O[C@@](Cn1cnnn1)(c1ccc(F)cc1F)C(F)(F)C12CC(C1)C2` [Compound 6A], the “MIC Candida albicans ATCC MYA-2876” value was determined as 0.06 µg/mL (≈ 0.175 µM).
On to `O[C@@](Cn1cnnn1)(c1ccc(Cl)cc1F)C(F)(F)C12CC(c3ccc(OCC(F)(F)F)cc3)(C1)C2` [Compound 7A], for which the “MIC Candida albicans ATCC MYA-2876” value is 0.0078 µg/mL (≈ 0.0146 µM).

The values are drawn from patent US20240228446A1, “PREPARATION METHOD FOR BICYCLIC COMPOUND AND APPLICATION AS ANTIFUNGAL AGENT” (priority 2021, published 2024).
